Data set [1] in a line: Contact angle measurement on a solid surface by sessile drop technique (wetting properties). As to conditions: Table 3, voriconazole series. It is filed as physicochemical. Here is the method: The contact angles of voriconazole alone, glucose, voriconazole micelle formulation and voriconazole liposome formulation on a solid surface were measured by sessile drop technique using Lorentzen and […], type 28 optical tensiometer. The purpose of measuring the contact angle is to determine the wetting properties of the formulation. Higher contact angles correspond to poor wetting whereas lower contact angle correspond to good wetting properties. Micelles and liposomes of itraconazole have been prepared according to the method described in example 1. The contact angles of itraconazole alone, glucose, itraconazole micelle formulation and itraconazole liposome formulation on a solid surface were measured by sessile drop technique using Lorentzen and […], type 28 optical tensiometer.

For data set [2] the following is noted: drug alone; no method described; cited from earlier work.

The structures appear in SMILES notation.

In data set [1], `C[C@@H](c1ncncc1F)[C@](O)(Cn1cncn1)c1ccc(F)cc1F` [Voriconazole] showed a Contact angle of 68.2°. Further, the Log P (as a rule, a log measure of how a compound divides between an organic and an aqueous phase) in data set [2] is 1.75.

The record behind these values is EP4005557A1, “METHOD FOR PREPARING NANOSYSTEMS” (Université de Genève, priority 2020, dated 2022).
